Results reported in patent US20040166160A1, “Methods and dosage forms with modified viscosity layers” (priority 2003, published 2004).
Where a name gives a salt, the structure may show the parent alone.

What was measured:
[1] = cited from earlier work
[2] = in vivo; cited from earlier work
[3] = in vivo; cited from earlier work; remark: listed apart in the source
[4] = FIG. 6
Excerpt: FIG. 6 illustrates blood plasma concentrations at various times achieved through various means of delivery. This figure illustrates the time necessary to achieve a particular blood plasma concentration.

Row | SMILES | solubility in alcohol ([1]; alcohol) | solubility in hydrocarbon solvents ([1]; hydrocarbon solvents) | solubility in isopropanol ([1]; isopropanol) | solubility in water ([1]; water) | reported side effects [2] | half-life [3] [h] | colonic absorption [4]
1 | CN(C)CCC=C1c2ccccc2C=Cc2ccccc21 [Cyclobenzaprine hydrochloride, cyclobenzaprine hydrochloride] | freely soluble | insoluble | sparingly soluble | freely soluble |  |  | 
2 | CN(C)CCC=C1c2ccccc2C=Cc2ccccc21 [cyclobenzaprine] |  |  |  |  | sedation and dry mouth | 24 to 72 | colonic absorption
